# Source: patent US5208227A, “Method, compositions, and compounds for modulating brain excitability” (priority 1991, dated 1993)
# Like-named read-outs stand apart in the source and are kept apart here.
# What was measured:
# [1] = test system: GABA/benzodiazepine receptor-chloride ionopore complex (GBR complex); assay: modulation (inhibition) of [35S]TBPS binding; parameters: species or system rat (male Sprague-Dawley); MAXIMAL INHIBITION: unit not given here; conditions: for MAXIMAL INHIBITION: [35S]TBPS binding; for MAXIMAL INHIBITION / CONTROL IC50 / IC50 / +5 μM GABA IC50: rat cerebral cortex; for CONTROL IC50 / IC50 / +5 μM GABA IC50: inhibition of 2 nM [35S]TBPS binding
# Experimental: These procedures were performed as follows:
# In these FIGS, (.circle.) represents control without bicuculline; represents 0.5 micromolar bicuculline; (.quadrature.) represents 1.0 micromolar bicuculline; represents 2.0 micromolar bicuculline; and (Δ) represents 3.0 micromolar bicuculline.
# progesterone receptor = molecular target: T1, progesterone receptor (Rattus norvegicus, UniProt Q63449); assay: [3H]R5020 binding to the progesterone receptor in rat uterus; conditions: FIG. 5
# T1 sequence (Q63449 1-923): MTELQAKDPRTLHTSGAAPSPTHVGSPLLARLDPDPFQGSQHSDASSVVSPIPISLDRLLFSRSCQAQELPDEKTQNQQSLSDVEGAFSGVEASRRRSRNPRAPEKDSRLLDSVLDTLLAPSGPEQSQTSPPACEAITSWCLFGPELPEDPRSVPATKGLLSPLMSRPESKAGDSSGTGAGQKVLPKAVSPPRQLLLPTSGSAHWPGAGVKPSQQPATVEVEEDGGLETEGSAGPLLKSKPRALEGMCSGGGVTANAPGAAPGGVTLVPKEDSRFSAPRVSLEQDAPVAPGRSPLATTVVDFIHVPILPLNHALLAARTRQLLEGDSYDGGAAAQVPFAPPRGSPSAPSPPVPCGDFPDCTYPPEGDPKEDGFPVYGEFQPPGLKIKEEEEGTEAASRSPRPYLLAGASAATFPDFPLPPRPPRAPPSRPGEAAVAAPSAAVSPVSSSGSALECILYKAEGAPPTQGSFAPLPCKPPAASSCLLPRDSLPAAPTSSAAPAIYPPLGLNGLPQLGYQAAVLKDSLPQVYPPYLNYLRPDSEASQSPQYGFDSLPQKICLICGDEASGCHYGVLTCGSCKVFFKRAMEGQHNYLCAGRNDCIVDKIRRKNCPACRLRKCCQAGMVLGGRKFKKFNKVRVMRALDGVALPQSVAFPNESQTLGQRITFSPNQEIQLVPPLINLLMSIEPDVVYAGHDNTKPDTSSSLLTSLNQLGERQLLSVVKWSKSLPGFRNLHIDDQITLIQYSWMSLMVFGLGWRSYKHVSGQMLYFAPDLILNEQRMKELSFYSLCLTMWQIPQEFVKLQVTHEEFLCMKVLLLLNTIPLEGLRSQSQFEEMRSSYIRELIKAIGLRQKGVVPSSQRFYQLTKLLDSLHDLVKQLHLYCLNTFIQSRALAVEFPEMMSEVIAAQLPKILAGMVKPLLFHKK
# From the text: The data plotted in FIG. 5 were obtained by performing assays in accordance with the procedures outlined above to determine the effect of progesterone metabolites and the progestin R5020 on the binding of [^3 H]R5020 to the progesterone receptor in rat uterus. All points on the plot of FIG. 5 represent the mean of triplicate determinations. The following compounds are those listed in FIG. 5: 5-alpha-pregnan-3-alpha-ol-20-one (DHP), 5-alpha-pregnan-3-alpha,21-diol-20-one (Th-DOC), and 5-beta-pregnane-3-alpha,20 diol (5 BETA).
# [2] = test system: maximal electroshock (tonic component) in mice; parameters: unit not given here; conditions: literature data; cited from earlier work
# [3] = test system: picrotoxin-induced convulsions in mice; parameters: key: NP: no protection; conditions: cited from earlier work
# [4] = test system: metrazol-induced convulsions in mice; parameters: key: NP: no protection; conditions: cited from earlier work
# mice [5] = test system: mice; parameters: unit not given beside the values; conditions: literature data; cited from earlier work
# [6] = test system: (+)bicuculline-induced seizures in mice; parameters: key: NP: no protection; conditions: cited from earlier work
# [7] = test system: strychnine-induced convulsions in mice; parameters: key to STR (strychnine) ED50: NP: no protection; conditions: cited from earlier work
# mice [8] = conditions: literature data; cited from earlier work
# [9] = test system: GBR complex ([35S]TBPS site); assay: dissociation kinetics of [35S]TBPS in cortical P2 homogenates; format: binding, rat
# Experimental: An assay was performed to determine the effect of pentobarbital on the dissociation kinetics of [^35 S]TBPS in rat cerebral cortical membranes. This assay was performed in accordance with the procedures outlined above. […] Dissociation of bound [^35 S]TBPS was initiated by 2 micromolar TBPS in all cases.
# [10] = test system: premenstrual syndrome (PMS), PND, catamenial epilepsy patients; conditions: cited from earlier work
# [11] = read-out: +5 μM GABA IC50, +5 μM GABA
# [12] = no added GABA (control), read-out: CONTROL IC50
# [13] = chemical convulsant administered i.v., Worms et al.
structure (smiles),measurement,setting,value
"C[C@]12C[C@H](O)[C@H]3[C@@H](CCC4=CC(=O)CC[C@@]43C)[C@@H]1CC[C@@H]2C(=O)CO [4-PREGNEN-11β,21- DIOL-3,20-DIONE]",MAXIMAL INHIBITION,[1],21
same,CONTROL IC50,[1]; no added GABA (control),INACTIVE
same,IC50,[1]; [11],> 100 µM
"CC(=O)[C@H]1CC[C@H]2[C@@H]3CC=C4C[C@@H](O)CC[C@]4(C)[C@H]3CC[C@]12C [5-PREGNAN-3β-OL- 20-ONE (PREGNENOLONE), 5-PREGNAN-3β-OL- 20-ONE]",MAXIMAL INHIBITION,[1],30
same,CONTROL IC50,[1]; no added GABA (control),INACTIVE
same,IC50,[1]; [11],> 100 µM
"C[C@]12CC[C@@H](O)C[C@@H]1CC[C@@H]1[C@@H]2CC[C@]2(C)[C@@H](C(=O)CO)CC[C@@H]12 [5-alpha-pregnan-3-alpha,21-diol-20-one]",affinity for the progesterone receptor,progesterone receptor,lack of affinity
"CC(O)[C@H]1CC[C@H]2[C@@H]3CC[C@@H]4C[C@H](O)CC[C@]4(C)[C@H]3CC[C@]12C (stereo partly drawn) [5-beta-pregnane-3-alpha,20 diol (5 BETA), 5-beta-pregnane-3-alpha,20 diol]",affinity for the progesterone receptor,progesterone receptor,lack of affinity
"C[C@]12CC[C@@H](O)C[C@@H]1CC[C@@H]1[C@@H]2CC[C@]2(C)[C@@H](O)CC[C@@H]12 [5α-ANDROSTAN-3α, 17β-DIOL]",MAXIMAL INHIBITION,[1],100
C[C@]12CCC(=O)C[C@@H]1CC[C@@H]1[C@@H]2CC[C@]2(C)[C@@H](O)CC[C@@H]12 [5α-ANDROSTAN-17β- OL-3-ONE],MAXIMAL INHIBITION,[1],52
same,IC50,[1]; [12],> 100 µM
"CC(O)[C@H]1CC[C@H]2[C@@H]3CC[C@H]4C[C@H](O)CC[C@]4(C)[C@H]3CC[C@]12C (stereo partly drawn) [5α-PREGNAN-3α,20- DIOL ([…]), 5α-PREGNAN-3α,20- DIOL]",MAXIMAL INHIBITION,[1],52
same,IC50,[1]; [12],0.359 µM
same,IC50,[1]; [11],0.082 µM
"C[C@]12CC[C@@H](O)C[C@@H]1CC[C@H]1[C@@H]3CC[C@H](C(=O)CO)[C@@]3(C)CC(=O)[C@@H]12 [5α-PREGNAN-3α-21- DIOL-11,20-DIONE]",IC50,[1]; [12],> 100 µM
CC(=O)[C@H]1CC[C@H]2[C@@H]3CC[C@H]4C[C@@H](O)CC[C@]4(C)[C@H]3CC[C@]12C [5α-PREGNAN-3β-OL- 20-ONE],MAXIMAL INHIBITION,[1],33
same,CONTROL IC50,[1]; no added GABA (control),INACTIVE
same,IC50,[1]; [11],> 100 µM
C[C@]12CC[C@@H]3c4ccc(O)cc4CC[C@H]3[C@@H]1CC[C@@H]2O [17β-ESTRADIOL],MAXIMAL INHIBITION,[1],0
same,+5 μM GABA IC50,[1]; +5 μM GABA,INACTIVE
same,CONTROL IC50,[1]; no added GABA (control),INACTIVE
CC(C)CCC[C@@H](C)[C@H]1CC[C@H]2[C@@H]3CC=C4C[C@@H](O)CC[C@]4(C)[C@H]3CC[C@]12C [CHOLESTEROL],MAXIMAL INHIBITION,[1],0
same,+5 μM GABA IC50,[1]; +5 μM GABA,INACTIVE
same,CONTROL IC50,[1]; no added GABA (control),INACTIVE
O=C1CN=C(c2ccccc2Cl)c2cc([N+](=O)[O-])ccc2N1 [Clonazepam],MES (maximal electroshock) ED50,[2],93
same,PICRO (picrotoxin) ED50,[3]; Swinyard & Woodhead,0.043
same,MTZ (metrazol) ED50,[4]; Swinyard & Woodhead,0.009
same,LD50,mice [5],> 6000
same,BIC (bicuculline) ED50,[6]; Swinyard & Woodhead,0.0086
same,STR (strychnine) ED50,[7]; Swinyard & Woodhead,NP
same,Rotorod (RR) ED50,mice [8],0.184
"NCCCC(=O)O [GABA, gamma-aminobutyric acid]",shift in dose-response curve for [35S]TBPS binding induced by (+)-bicuculline,"[1]; (+)-bicuculline 0.5-3.0 micromolar, FIGS. 1A and 1B",classical parallel shift
CCCC(C)C1(CC)C(=O)NC(=O)NC1=O (stereo not drawn) [Na pentobarbital],"Total percentage of specific sites, rapidly dissociating (R)","[9]; (**P < 0.01 vs control), alphaxalone 300 nM, 3a-OH-DHP 20 nM",48 ± 6 percentage
same,"Total percentage of specific sites, slowly dissociating (S)","[9]; (*P < 0.05 vs control), alphaxalone 300 nM, 3a-OH-DHP 20 nM",61 ± 6 percentage
same,"k-1, rapidly dissociating component (R)","[9]; [35S]TBPS dissociation, alphaxalone 300 nM, 3a-OH-DHP 20 nM",0.158 min⁻¹
same,"k-1, slowly dissociating component (S)","[9]; [35S]TBPS dissociation, pentobarbital 30 nM [sic], alphaxalone 300 nM, 3a-OH-DHP 20 nM",0.0186 min⁻¹
same,effect on dissociation mechanism/kinetics of [35S]TBPS (in words),"[9]; pentobarbital 30 micromolar, alphaxalone 300 nanomolar, 5-alpha-pregnan-3-alpha-hydroxy-20-one 20 nanomolar",induces a biphasic dissociation mechanism
CC(=O)[C@H]1CC[C@H]2[C@@H]3CCC4=CC(=O)CC[C@]4(C)[C@H]3CC[C@]12C [PROGESTERONE],dose-response relationship in the treatment of PMS,[10]; Maddocks et al.,no dose-response relationship exists
same,"clinical effectiveness in PMS, PND, catamenial epilepsy",[10]; literature,not consistently effective
same,MAXIMAL INHIBITION,[1],100
same,potency/efficacy/affinity at the GBR complex (in words),[1]; in vitro,very low potency
same,IC50,[1]; [12],> 100 µM
CCC1(c2ccccc2)C(=O)NC(=O)NC1=O [Phenobarbital],MES (maximal electroshock) ED50,[2],22
same,PICRO (picrotoxin) ED50,[3]; Swinyard & Woodhead,28
same,MTZ (metrazol) ED50,[4]; Swinyard & Woodhead,13
same,LD50,mice [5],265
same,BIC (bicuculline) ED50,[6]; Swinyard & Woodhead,38
same,STR (strychnine) ED50,[7]; Swinyard & Woodhead,95
same,Rotorod (RR) ED50,mice [8],69
O=C1NC(=O)C(c2ccccc2)(c2ccccc2)N1 [Phenytoin],PICRO (picrotoxin) ED50,[3]; Swinyard & Woodhead,NP
same,MTZ (metrazol) ED50,[4]; Swinyard & Woodhead,NP
same,LD50,mice [5],230
same,BIC (bicuculline) ED50,[6]; Swinyard & Woodhead,NP
same,Maximum protection (strychnine),[7]; at 55-100 mg/kg,50%
NC(=O)CCC/N=C(\c1ccc(Cl)cc1)c1cc(F)ccc1O [Progabide],MES (maximal electroshock) ED50,[2],75
same,PICRO (picrotoxin) ED50,[3]; [13],105
same,MTZ (metrazol) ED50,[4]; [13],30
same,LD50,mice [5],3000
same,BIC (bicuculline) ED50,[6]; [13],30
same,STR (strychnine) ED50,[7]; [13],75
CCCC(CCC)C(=O)O [Valproate],MES (maximal electroshock) ED50,[2],272
same,PICRO (picrotoxin) ED50,[3]; Swinyard & Woodhead,387
same,MTZ (metrazol) ED50,[4]; Swinyard & Woodhead,149
same,LD50,mice [5],1105
same,BIC (bicuculline) ED50,[6]; Swinyard & Woodhead,360
same,STR (strychnine) ED50,[7]; Swinyard & Woodhead,293
